Measured values published in the supplement of paper PMC10307832.

Assays:
Assay in all cases: relative viability (nuclei count vs DMSO), 5 days (fraction); higher = more cells survive
Apatinib + Linsitinib = compound: N#CC1(c2ccc(NC(=O)c3cccnc3NCc3ccncc3)cc2)CCCC1 [Apatinib] + C[C@]1(O)C[C@@H](c2nc(-c3ccc4ccc(-c5ccccc5)nc4c3)c3c(N)nccn32)C1 [Linsitinib] (partner 1 µM)
In short: (§1)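 Lung cancer cell lines, seeded in 1536-well plates, were treated the following day by pin tool with a single drug or with five library-drug doses (not always all listed) in √10 steps on top of a fixed anchor-drug dose. Cells were fixed and nuclei stained in one step after 5 days, and nuclei were counted. Relative viability is the nuclei count for treated wells divided by that for vehicle wells, reported as medians of duplicate plates.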

Metformin + Olaparib = compound: CN(C)C(=N)NC(=N)N [Metformin] + O=C(c1cc(Cc2n[nH]c(=O)c3ccccc23)ccc1F)N1CCN(C(=O)C2CC2)CC1 [Olaparib] (partner 8 µM)
In short: as §1

Metformin + Alpelisib = compound: CN(C)C(=N)NC(=N)N [Metformin] + Cc1nc(NC(=O)N2CCC[C@H]2C(N)=O)sc1-c1ccnc(C(C)(C)C(F)(F)F)c1 [Alpelisib] (partner 2 µM)
In short: as §1

Apatinib + Bortezomib = compound: N#CC1(c2ccc(NC(=O)c3cccnc3NCc3ccncc3)cc2)CCCC1 [Apatinib] + CC(C)C[C@H](NC(=O)[C@H](Cc1ccccc1)NC(=O)c1cnccn1)B(O)O [Bortezomib] (partner 0.002 µM)
In short: as §1

Cell Line | relative viability (Apatinib + Linsitinib; first compound 0.08 µM) | relative viability (Apatinib + Linsitinib; first compound 0.253 µM) | relative viability (Apatinib + Linsitinib; first compound 0.8 µM) | relative viability (Apatinib + Linsitinib; first compound 2.53 µM) | relative viability (Apatinib + Linsitinib; first compound 8 µM) | relative viability (Metformin + Olaparib; first compound 10 µM) | relative viability (Metformin + Olaparib; first compound 31.62 µM) | relative viability (Metformin + Olaparib; first compound 100 µM) | relative viability (Metformin + Olaparib; first compound 316.23 µM) | relative viability (Metformin + Olaparib; first compound 1000 µM) | relative viability (Metformin + Alpelisib; first compound 10 µM) | relative viability (Metformin + Alpelisib; first compound 31.62 µM) | relative viability (Metformin + Alpelisib; first compound 100 µM) | relative viability (Metformin + Alpelisib; first compound 316.23 µM) | relative viability (Metformin + Alpelisib; first compound 1000 µM) | relative viability (Apatinib + Bortezomib; first compound 0.08 µM) | relative viability (Apatinib + Bortezomib; first compound 0.253 µM) | relative viability (Apatinib + Bortezomib; first compound 0.8 µM) | relative viability (Apatinib + Bortezomib; first compound 2.53 µM) | relative viability (Apatinib + Bortezomib; first compound 8 µM)
NCI-H520 | 1.12 | 0.948 | 0.842 | 0.876 | 0.878 | 0.276 | 0.264 | 0.276 | 0.274 | 0.259 | 0.764 | 0.855 | 0.948 | 0.665 | 0.86 | 0.83 | 0.492 | 0.451 | 0.585 | 0.447
HCC-366 | 0.899 | 0.732 | 0.571 | 0.678 | 0.616 | 0.255 | 0.21 | 0.213 | 0.203 | 0.213 | 0.43 | 0.545 | 0.472 | 0.452 | 0.535 | 1.16 | 1.1 | 0.948 | 0.926 | 1.09
EMC-BAC-2 | 0.815 | 0.816 | 0.766 | 0.72 | 0.78 | 0.381 | 0.394 | 0.401 | 0.339 | 0.361 | 0.612 | 0.704 | 0.675 | 0.639 | 0.674 | 1.08 | 0.987 | 1.07 | 0.843 | 0.918
NCI-H647 | 1.32 | 1.18 | 1.01 | 1.04 | 1.02 | 0.375 | 0.394 | 0.415 | 0.44 | 0.375 | 1.07 | 1.05 | 1.08 | 1.15 | 1.21 | 1.27 | 1.33 | 1.01 | 0.736 | 0.823
EPLC-272H | 1.19 | 1.07 | 1.23 | 1.23 | 1.12 | 0.748 | 0.769 | 1.01 | 0.922 | 0.877 | 1.15 | 1.04 | 1.1 | 1.04 | 1.13 | 1.04 | 0.905 | 0.806 | 0.738 | 0.666
EBC-1 | 0.935 | 0.981 | 0.955 | 0.685 | 0.567 | 0.68 | 0.733 | 0.73 | 0.728 | 0.721 | 0.866 | 0.989 | 0.925 | 0.941 | 0.947 | 0.577 | 0.782 | 0.605 | 0.395 | 0.359
NCI-H2087 | 1.07 | 0.925 | 0.907 | 0.924 | 0.716 | 0.316 | 0.453 | 0.414 | 0.426 | 0.473 | 1.09 | 0.858 | 1.05 | 0.982 | 0.963 | 0.866 | 0.82 | 0.779 | 0.737 | 0.671
PC-3 [JPC-3] | 0.98 | 0.961 | 0.885 | 0.797 | 0.894 | 0.95 | 0.932 | – | 0.741 | 0.69 | 0.92 | 0.971 | 1.03 | 0.949 | 0.965 | 0.832 | 0.773 | 0.713 | 0.716 | 0.813
